PubChem BioAssay AID330 (DTP/NCI, 2004)
“And” between values parts separate entries of the source, which are not always exact repeats. Equal values may be shown once. Inconclusive results and toxic doses are left out.

Test system: P388 leukemia ip, CD2F1 mice, survival T/C
Assay: NCI In Vivo Anticancer Drug Screen. Data for tumor model P388 Leukemia (intraperitoneal) in CD2F1 (CDF1) mice
Settings: endpoint: median survival time, higher = longer survival
Outline: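 Mice carrying the transplanted tumor received test compound or vehicle. Survival was recorded in each group, and the value is the treated-group measurement divided by that of the vehicle-treated control group.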

## CC1([CH2][Hg][I])OCCOC1[CH2][Hg][I] (stereo not given)
dose: 25.0 mg/kg/injection, schedule: Q01DX009 (ip), vehicle: saline
  T/C: 105 % of control

## COc1cccc(/C=C/c2ccnnc2)c1OC
dose: 50.0 mg/kg/injection, schedule: Q01DX009 (ip), vehicle: saline
  T/C: 104 % of control
dose: 100.0 mg/kg/injection, schedule: Q01DX009 (ip), vehicle: saline
  T/C: 108 % of control
dose: 200.0 mg/kg/injection, schedule: Q01DX009 (ip), vehicle: saline
  T/C: 100 % of control

## CCC(C)/C(=C\C#N)NCCCN/C(=C/C#N)C(C)CC (stereo not given)
dose: 3.75 mg/kg/injection, schedule: Q01DX005 (ip), vehicle: Klucel + Tween-80
  T/C: 100 % of control
dose: 7.5 mg/kg/injection, schedule: Q01DX005 (ip), vehicle: Klucel + Tween-80
  T/C: 109 % of control
dose: 15.0 mg/kg/injection, schedule: Q01DX005 (ip), vehicle: Klucel + Tween-80
  T/C: 92 % of control and 98 % of control
dose: 60.0 mg/kg/injection, schedule: Q01DX005 (ip), vehicle: Klucel + Tween-80
  T/C: 86 % of control
dose: 120.0 mg/kg/injection, schedule: Q01DX005 (ip), vehicle: Klucel (hydroxypropylcellulose) (HPC)
  T/C: 88 % of control

## CSC1=NNC(C)(C)C(N)=N1
dose: 100.0 mg/kg/injection, schedule: Q01DX001 (ip), vehicle: saline
  T/C: 98 % of control
dose: 200.0 mg/kg/injection, schedule: Q01DX001 (ip), vehicle: saline
  T/C: 97 % of control
dose: 400.0 mg/kg/injection, schedule: Q01DX001 (ip), vehicle: saline
  T/C: 100 % of control

## O=C(O)CCCCCCCCCCC1C=CCC1 (stereo not given)
dose: 100.0 mg/kg/injection, schedule: Q04DX003 (ip), vehicle: saline
  T/C: 93 % of control
dose: 200.0 mg/kg/injection, schedule: Q04DX003 (ip), vehicle: saline
  T/C: 93 % of control
dose: 400.0 mg/kg/injection, schedule: Q04DX003 (ip), vehicle: saline
  T/C: 93 % of control

## O=C1CCC(NCCc2ccccc2)C(=O)O1 (stereo not given)
dose: 50.0 mg/kg/injection, schedule: Q01DX009 (ip), vehicle: Klucel (hydroxypropylcellulose) (HPC)
  T/C: 98 % of control
dose: 100.0 mg/kg/injection, schedule: Q01DX009 (ip), vehicle: Klucel (hydroxypropylcellulose) (HPC)
  T/C: 92 % of control
dose: 200.0 mg/kg/injection, schedule: Q01DX009 (ip), vehicle: Klucel (hydroxypropylcellulose) (HPC)
  T/C: 103 % of control

## CCC(C)NC(=O)C(C)O (stereo not given)
dose: 50.0 mg/kg/injection, schedule: Q01DX005 (ip), vehicle: saline
  T/C: 95 % of control
dose: 100.0 mg/kg/injection, schedule: Q01DX005 (ip), vehicle: saline
  T/C: 99 % of control
dose: 200.0 mg/kg/injection, schedule: Q01DX005 (ip), vehicle: saline
  T/C: 97 % of control

## Cc1ccn(C(=O)C2=Cc3ccccc3OC2)c(=N)c1
dose: 100.0 mg/kg/injection, schedule: Q04DX003 (ip), vehicle: Klucel (hydroxypropylcellulose) (HPC)
  T/C: 106 % of control
dose: 200.0 mg/kg/injection, schedule: Q04DX003 (ip), vehicle: Klucel (hydroxypropylcellulose) (HPC)
  T/C: 103 % of control
dose: 400.0 mg/kg/injection, schedule: Q04DX003 (ip), vehicle: Klucel (hydroxypropylcellulose) (HPC)
  T/C: 100 % of control

## COc1cccc2c1C(CO)N1C(C#N)C3CC(C(=O)O)C(C1C2)N3C (stereo not given)
dose: 0.78 mg/kg/injection, schedule: Q01DX005 (ip), vehicle: suspension in saline
  T/C: 116 % of control and 122 % of control
dose: 1.56 mg/kg/injection, schedule: Q01DX005 (ip), vehicle: suspension in saline
  T/C: 122 % of control
dose: 3.12 mg/kg/injection, schedule: Q01DX005 (ip), vehicle: saline
  T/C: 150 % of control
dose: 6.25 mg/kg/injection, schedule: Q01DX005 (ip), vehicle: saline
  T/C: 157 % of control
dose: 6.25 mg/kg/injection, schedule: Q01DX005 (ip), vehicle: suspension in saline
  T/C: 159 % of control
dose: 12.5 mg/kg/injection, schedule: Q01DX005 (ip), vehicle: saline
  T/C: 160 % of control
dose: 12.5 mg/kg/injection, schedule: Q01DX005 (ip), vehicle: suspension in saline
  T/C: 150 % of control and 178 % of control and 186 % of control
dose: 25.0 mg/kg/injection, schedule: Q01DX005 (ip), vehicle: saline
  T/C: 200 % of control

## CN(C)c1ncnc2c1ncn2CCn1cnc2c(N(C)C)ncnc21
dose: 12.5 mg/kg/injection, schedule: Q01DX005 (ip), vehicle: Klucel (hydroxypropylcellulose) (HPC)
  T/C: 97 % of control
dose: 25.0 mg/kg/injection, schedule: Q01DX005 (ip), vehicle: Klucel (hydroxypropylcellulose) (HPC)
  T/C: 100 % of control
dose: 50.0 mg/kg/injection, schedule: Q01DX005 (ip), vehicle: Klucel (hydroxypropylcellulose) (HPC)
  T/C: 100 % of control and 90 % of control
dose: 100.0 mg/kg/injection, schedule: Q01DX005 (ip), vehicle: Klucel (hydroxypropylcellulose) (HPC)
  T/C: 90 % of control

## N=c1c2c(ncn1Cc1ccccc1)CCN(Cc1ccccc1)C2
dose: 12.5 mg/kg/injection, schedule: Q01DX009 (ip), vehicle: saline with Tween-80
  T/C: 101 % of control
dose: 25.0 mg/kg/injection, schedule: Q01DX009 (ip), vehicle: saline with Tween-80
  T/C: 100 % of control and 114 % of control
dose: 50.0 mg/kg/injection, schedule: Q01DX009 (ip), vehicle: saline with Tween-80
  T/C: 104 % of control
dose: 100.0 mg/kg/injection, schedule: Q01DX009 (ip), vehicle: saline with Tween-80
  T/C: 112 % of control
